Test results reported in ChEMBL document CHEMBL1629647, “Preclinical evaluation of GS-9160, a novel inhibitor of human immunodeficiency virus type 1 integrase” (Antimicrob Agents Chemother, 2009).

Legend:
[1] = Cytotoxicity against human SupT1 cells infected with HIV1 3B; format: cell-based, SUP-T1; conditions: SupT1 cells infected with HIV-1 3B
[2] = system: Human immunodeficiency virus 1; assay: Antiviral activity against HIV1 infected in SupT1 cells assessed as accumulation of late RT products after 12 hrs; format: functional, organism-based; conditions: Human immunodeficiency virus 1, SUP-T1, 12 h
[3] = system: Human immunodeficiency virus 1; assay: Antiviral activity against HIV1 infected in SupT1 cells assessed as accumulation of integrated junction products after 48 hrs by Alu-PCR assay; format: functional, organism-based; conditions: Human immunodeficiency virus 1, SUP-T1, 48 h
[4] = system: Human immunodeficiency virus 1; assay: Selectivity ratio of EC50 for antiviral activity against 3TC-resistant HIV1 selected after 4 passages to EC50 for antiviral activity against wild-type HIV1 3B; format: functional
[5] = system: Human immunodeficiency virus 1; assay: Selectivity ratio of EC50 for antiviral activity against 3TC-resistant HIV1 selected after 8 passages to EC50 for antiviral activity against wild-type HIV1 3B; format: functional
[6] = system: Human immunodeficiency virus 1; assay: Selectivity ratio of EC50 for antiviral activity against EFV-resistant HIV1 selected after 3 passages to EC50 for antiviral activity against wild-type HIV1 3B; format: functional
[7] = system: Human immunodeficiency virus 1; assay: Selectivity ratio of EC50 for antiviral activity against EFV-resistant HIV1 selected after 7 passages to EC50 for antiviral activity against wild-type HIV1 3B; format: functional
[8] = system: Human immunodeficiency virus 1; assay: Selectivity ratio of EC50 for antiviral activity against APV-resistant HIV1 selected after 2 passages to EC50 for antiviral activity against wild-type HIV1 3B; format: functional
[9] = system: Human immunodeficiency virus 1; assay: Selectivity ratio of EC50 for antiviral activity against APV-resistant HIV1 selected after 4 passages to EC50 for antiviral activity against wild-type HIV1 3B; format: functional
[10] = system: Human immunodeficiency virus 1; assay: Selectivity ratio of EC50 for antiviral activity against GS-9160-resistant HIV1 selected after 5 passages to EC50 for antiviral activity against wild-type HIV1 3B; format: functional
[11] = system: Human immunodeficiency virus 1; assay: Selectivity ratio of EC50 for antiviral activity against GS-9160-resistant HIV1 selected after 6 passages to EC50 for antiviral activity against wild-type HIV1 3B; format: functional
[12] = system: Human immunodeficiency virus 1; assay: Selectivity ratio of EC50 for antiviral activity against GS-9160-resistant HIV1 selected after 8 passages to EC50 for antiviral activity against wild-type HIV1 3B; format: functional
[13] = system: Human immunodeficiency virus 1; assay: Selectivity ratio of EC50 for antiviral activity against GS-9160-resistant HIV1 selected after 9 passages to EC50 for antiviral activity against wild-type HIV1 3B; format: functional
[14] = system: Human immunodeficiency virus 1; assay: Antiviral activity against HIV1 3B infected in human MT-2 cells by two fold dilution method in presence of 10% FBS; format: functional, organism-based; conditions: Human immunodeficiency virus 1, 3B, MT2
[15] = system: Human immunodeficiency virus 1; assay: Antiviral activity against HIV1 3B infected in human MT-2 cells by two fold dilution method in presence of 10% FBS, HSA and alpha1-AGP; format: functional, organism-based; conditions: Human immunodeficiency virus 1, 3B, MT2
[16] = system: Human immunodeficiency virus 1; assay: Antiviral activity against HIV1 3B infected in human MT-4 cells by two fold dilution method in presence of 10% FBS; format: functional, organism-based; conditions: Human immunodeficiency virus 1, 3B, MT4
[17] = Cytotoxicity against human MT4 cells infected with HIV1 3B by three fold dilution method in presence of 10% FBS; format: cell-based; conditions: MT4 cells infected with HIV-1 3B
[18] = Cytotoxicity against human uninfected MT2 cells by three fold dilution method in presence of 10% FBS
[19] = system: Human immunodeficiency virus 1; assay: Selectivity ratio of EC50 for antiviral activity against NRTI-resistant HIV1 harboring RTK65R mutant gene to EC50 for antiviral activity against wild-type HIV1 3B; format: functional
[20] = system: Human immunodeficiency virus 1; assay: Selectivity ratio of EC50 for antiviral activity against NRTI-resistant HIV1 harboring RTM184V mutant gene to EC50 for antiviral activity against wild-type HIV1 3B; format: functional
[21] = system: Human immunodeficiency virus 1; assay: Selectivity ratio of EC50 for antiviral activity against NRTI-resistant HIV1 harboring RT-6TAMs mutant gene to EC50 for antiviral activity against wild-type HIV1 3B; format: functional
[22] = system: Human immunodeficiency virus 1; assay: Selectivity ratio of EC50 for antiviral activity against NNRTI-resistant HIV1 harboring RTK103N mutant gene to EC50 for antiviral activity against wild-type HIV1 3B; format: functional
[23] = system: Human immunodeficiency virus 1; assay: Selectivity ratio of EC50 for antiviral activity against NNRTI-resistant HIV1 harboring RTY181C mutant gene to EC50 for antiviral activity against wild-type HIV1 3B; format: functional
[24] = system: Human immunodeficiency virus 1; assay: Selectivity ratio of EC50 for antiviral activity against PI-resistant HIV1 harboring […], L90M mutant gene to EC50 for antiviral activity against wild-type HIV1 3B; format: functional
[25] = system: Human immunodeficiency virus 1; assay: Selectivity ratio of EC50 for antiviral activity against PI-resistant HIV1 harboring […], V82A and L90M mutant gene to EC50 for antiviral activity against wild-type HIV1 3B; format: functional
[26] = system: Human immunodeficiency virus 1; assay: Selectivity ratio of EC50 for antiviral activity against HIV1 harboring T66I mutation in catalytic core domain of integrase to EC50 for antiviral activity against wild-type HIV1 3B; format: functional
[27] = system: Human immunodeficiency virus 1; assay: Selectivity ratio of EC50 for antiviral activity against HIV1 harboring L74M mutation in catalytic core domain of integrase to EC50 for antiviral activity against wild-type HIV1 3B; format: functional
[28] = system: Human immunodeficiency virus 1; assay: Selectivity ratio of EC50 for antiviral activity against HIV1 harboring E92Q mutation in catalytic core domain of integrase to EC50 for antiviral activity against wild-type HIV1 3B; format: functional
[29] = system: Human immunodeficiency virus 1; assay: Selectivity ratio of EC50 for antiviral activity against HIV1 harboring E92V mutation in catalytic core domain of integrase to EC50 for antiviral activity against wild-type HIV1 3B; format: functional
[30] = system: Human immunodeficiency virus 1; assay: Selectivity ratio of EC50 for antiviral activity against HIV1 harboring E138K mutation in catalytic core domain of integrase to EC50 for antiviral activity against wild-type HIV1 3B; format: functional
[31] = system: Human immunodeficiency virus 1; assay: Selectivity ratio of EC50 for antiviral activity against HIV1 harboring G140S mutation in catalytic core domain of integrase to EC50 for antiviral activity against wild-type HIV1 3B; format: functional
[32] = system: Human immunodeficiency virus 1; assay: Selectivity ratio of EC50 for antiviral activity against HIV1 harboring Q148K mutation in catalytic core domain of integrase to EC50 for antiviral activity against wild-type HIV1 3B; format: functional
[33] = system: Human immunodeficiency virus 1; assay: Selectivity ratio of EC50 for antiviral activity against HIV1 harboring V151A mutation in catalytic core domain of integrase to EC50 for antiviral activity against wild-type HIV1 3B; format: functional
[34] = system: Human immunodeficiency virus 1; assay: Selectivity ratio of EC50 for antiviral activity against HIV1 harboring N155H mutation in catalytic core domain of integrase to EC50 for antiviral activity against wild-type HIV1 3B; format: functional
[35] = system: Human immunodeficiency virus 1; assay: Selectivity ratio of EC50 for antiviral activity against HIV1 harboring N155S mutation in catalytic core domain of integrase to EC50 for antiviral activity against wild-type HIV1 3B; format: functional
[36] = system: Human immunodeficiency virus 1; assay: Selectivity ratio of EC50 for antiviral activity against HIV1 harboring L74M and E92V mutation in catalytic core domain of integrase to EC50 for antiviral activity against wild-type HIV1 3B; format: functional
[37] = system: Human immunodeficiency virus 1; assay: Selectivity ratio of EC50 for antiviral activity against HIV1 harboring E92V and V151A mutation in catalytic core domain of integrase to EC50 for antiviral activity against wild-type HIV1 3B; format: functional
[38] = system: Human immunodeficiency virus 1; assay: Selectivity ratio of EC50 for antiviral activity against HIV1 harboring E138K and Q148K mutation in catalytic core domain of integrase to EC50 for antiviral activity against wild-type HIV1 3B; format: functional
[39] = system: Human immunodeficiency virus 1; assay: Selectivity ratio of EC50 for antiviral activity against HIV1 harboring E92V, G140S and V151A mutation in catalytic core domain of integrase to EC50 for antiviral activity against wild-type HIV1 3B; format: functional
[40] = system: Human immunodeficiency virus 1; assay: Selectivity ratio of EC50 for antiviral activity against HIV1 harboring G140S and Q148H mutation in catalytic core domain of integrase to EC50 for antiviral activity against wild-type HIV1 3B; format: functional

Structure (SMILES) | EC50 [14] [nM] | Ratio EC50 [19] | Ratio EC50 [20] | Ratio EC50 [21] | Ratio EC50 [22] | Ratio EC50 [23] | Ratio EC50 [24] | Ratio EC50 [25] | Ratio EC50 [26] | Ratio EC50 [27] | Ratio EC50 [28] | Ratio EC50 [29] | Ratio EC50 [30] | Ratio EC50 [31] | Ratio EC50 [32] | Ratio EC50 [33] | Ratio EC50 [34] | Ratio EC50 [35] | Ratio EC50 [36] | Ratio EC50 [37] | also measured
CC(C)CN(C[C@@H](O)[C@H](Cc1ccccc1)NC(=O)O[C@H]1CCOC1)S(=O)(=O)c1ccc(N)cc1 | – | – | – | – | – | – | – | – | – | – | – | – | – | – | – | – | – | – | – | – | CC50 [1]: 96000 nM; EC50 [2]: > 1000 nM; EC50 [3]: > 1000 nM; Ratio EC50 [4]: 1.6; Ratio EC50 [5]: 0.9; Ratio EC50 [6]: 1.2; Ratio EC50 [7]: 1.6; Ratio EC50 [8]: 3.4; Ratio EC50 [9]: 8.7; Ratio EC50 [10]: 1; Ratio EC50 [11]: 1.5; Ratio EC50 [12]: 4; Ratio EC50 [13]: 1.5
Cc1nnc(C(=O)NC(C)(C)c2nc(C(=O)NCc3ccc(F)cc3)c(O)c(=O)n2C)o1 | 3 | – | – | – | – | – | – | – | – | – | – | – | – | – | – | – | – | – | – | – | EC50 [15]: 18 nM; EC50 [16]: 8 nM; CC50 [17]: 58200 nM; CC50 [18]: > 100000 nM
CC(C)c1nc(COC(N)=O)n(Cc2ccncc2)c1Sc1cc(Cl)cc(Cl)c1 [CAPRAVIRINE] | 0.2 | 0.4 | 1 | 762 | 0 | 89 | 1 | 1 | 2 | 1 | 1 | 3 | 3 | 2 | 1 | 4 | 6 | 6 | 3 | 2 | Ratio EC50 [38]: 3; Ratio EC50 [39]: 3; Ratio EC50 [40]: 0.2
O=C1Nc2ccc(Cl)cc2[C@@](C#CC2CC2)(C(F)(F)F)O1 [EFAVIRENZ] | 6.8 | – | – | – | – | – | – | – | – | – | – | – | – | – | – | – | – | – | – | – | CC50 [1]: 15500 nM
Nc1nc(=O)n([C@@H]2CS[C@H](CO)O2)cc1F [EMTRICITABINE] | 323 | 26 | >55 | 23 | 1 | 0.4 | 1 | 1 | 1 | 1 | 2 | 1 | 1 | 1 | 2 | 3 | 2 | 3 | 2 | 4 | Ratio EC50 [38]: 2; Ratio EC50 [39]: 2; Ratio EC50 [40]: 0.8
Nc1ccn([C@@H]2CS[C@H](CO)O2)c(=O)n1 [LAMIVUDINE] | – | – | – | – | – | – | – | – | – | – | – | – | – | – | – | – | – | – | – | – | Ratio EC50 [4]: >272; Ratio EC50 [5]: >272; Ratio EC50 [6]: 2; Ratio EC50 [7]: 1; Ratio EC50 [8]: 7; Ratio EC50 [9]: 9; Ratio EC50 [10]: 1.8; Ratio EC50 [11]: 4.5; Ratio EC50 [12]: 5.7; Ratio EC50 [13]: 1.4
Cc1cccc(C)c1OCC(=O)N[C@@H](Cc1ccccc1)[C@@H](O)C[C@H](Cc1ccccc1)NC(=O)[C@H](C(C)C)N1CCCNC1=O [LOPINAVIR] | 4.8 | 3 | 3 | 5 | 1 | 1 | 29 | 9 | 4 | 1 | 1 | 1 | 1 | 1 | 1 | 1 | 2 | 2 | 1 | 1 | Ratio EC50 [38]: 1; Ratio EC50 [39]: 2; Ratio EC50 [40]: 1
CC(C)OC(=O)OCOP(=O)(CO[C@H](C)Cn1cnc2c(N)ncnc21)OCOC(=O)OC(C)C.O=C(O)/C=C/C(=O)O [TENOFOVIR DISOPROXIL FUMARATE] | 6.8 | 4 | 1 | 9 | 1 | 1 | 1 | 1 | 1 | 1 | 1 | 2 | 2 | 1 | 1 | 2 | 2 | 2 | 1 | 2 | Ratio EC50 [38]: 2; Ratio EC50 [39]: 2; Ratio EC50 [40]: 0.3
